Data as given in ChEMBL document CHEMBL1152751, “2,5-Disubstituted tetrahydrofurans as selective serotonin re-uptake inhibitors” (Bioorg Med Chem, 2009).
Active and inactive are the calls of the source. No cut-off for these calls is given here.

Columns and labels:
[1] = biological target: T1, Sodium-dependent dopamine transporter (Homo sapiens, UniProt Q01959); assay: biochemical; format: cell-based, HEK293
Description: Displacement of [125I]RTI55 from human DAT expressed in HEK cells

[2] = biological target: T2, Sodium-dependent noradrenaline transporter (Homo sapiens, UniProt P23975); assay: biochemical; format: cell-based, HEK293
Description: Displacement of [125I]RTI55 from human NET expressed in HEK cells

[3] = biological target: T2, Sodium-dependent noradrenaline transporter; assay: Inhibition of [3H]norepinephrine reuptake at human NET expressed in HEK cells; format: cell-based, HEK293
[4] = biological target: T1, Sodium-dependent dopamine transporter; assay: Inhibition of [3H]dopamine reuptake at human DAT expressed in HEK cells; format: cell-based, HEK293
[5] = biological target: T3, Sodium-dependent serotonin transporter (Homo sapiens, UniProt P31645); assay: biochemical; format: cell-based, HEK293
Description: Displacement of [125I]RTI55 from human SERT expressed in HEK cells

[6] = biological target: T3, Sodium-dependent serotonin transporter; assay: Inhibition of [3H]serotonin reuptake at human SERT expressed in HEK cells; format: cell-based, HEK293
Mus musculus [7] = assay: Antidepressant activity in BALB/c mouse assessed as decrease in duration of immobility at 10 mg/kg, ip pretreated 30 mins before test by forced swimming test; format: functional, organism-based; parameters: dose 10 mg/kg
Mus musculus [8] = assay: Antidepressant activity in BALB/c mouse assessed as change in duration of immobility at 20 mg/kg, ip pretreated 30 mins before test by forced swimming test; format: functional, organism-based; parameters: dose 20 mg/kg
Mus musculus [9] = assay: Antidepressant activity in ICR mouse assessed as change in duration of immobility at 10 mg/kg, ip pretreated 30 mins before test by forced swimming test; format: functional, organism-based; parameters: dose 10 mg/kg
[10] = Metabolic stability assessed as half life in mouse liver microsomes; format: ADME, Microsome
[11] = Metabolic stability assessed as half life in rat liver microsomes; format: ADME, Microsome

T2 sequence (P23975 whole entry): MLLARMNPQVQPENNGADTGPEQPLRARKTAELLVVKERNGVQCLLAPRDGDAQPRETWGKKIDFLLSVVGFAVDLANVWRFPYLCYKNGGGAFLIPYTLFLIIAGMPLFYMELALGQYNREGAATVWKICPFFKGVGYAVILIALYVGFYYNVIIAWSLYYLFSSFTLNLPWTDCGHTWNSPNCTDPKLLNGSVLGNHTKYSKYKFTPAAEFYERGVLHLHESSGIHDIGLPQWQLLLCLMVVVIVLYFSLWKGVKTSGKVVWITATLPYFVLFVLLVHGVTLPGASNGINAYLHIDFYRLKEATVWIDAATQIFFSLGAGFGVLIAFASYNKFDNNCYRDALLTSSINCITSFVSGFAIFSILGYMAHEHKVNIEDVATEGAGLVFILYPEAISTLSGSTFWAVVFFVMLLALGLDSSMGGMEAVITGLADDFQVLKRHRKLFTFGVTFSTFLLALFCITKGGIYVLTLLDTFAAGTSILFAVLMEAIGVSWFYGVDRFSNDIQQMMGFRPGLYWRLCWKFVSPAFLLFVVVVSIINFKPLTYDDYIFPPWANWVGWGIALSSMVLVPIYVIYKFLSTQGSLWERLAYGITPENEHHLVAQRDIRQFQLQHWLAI
T3 sequence (P31645 whole entry): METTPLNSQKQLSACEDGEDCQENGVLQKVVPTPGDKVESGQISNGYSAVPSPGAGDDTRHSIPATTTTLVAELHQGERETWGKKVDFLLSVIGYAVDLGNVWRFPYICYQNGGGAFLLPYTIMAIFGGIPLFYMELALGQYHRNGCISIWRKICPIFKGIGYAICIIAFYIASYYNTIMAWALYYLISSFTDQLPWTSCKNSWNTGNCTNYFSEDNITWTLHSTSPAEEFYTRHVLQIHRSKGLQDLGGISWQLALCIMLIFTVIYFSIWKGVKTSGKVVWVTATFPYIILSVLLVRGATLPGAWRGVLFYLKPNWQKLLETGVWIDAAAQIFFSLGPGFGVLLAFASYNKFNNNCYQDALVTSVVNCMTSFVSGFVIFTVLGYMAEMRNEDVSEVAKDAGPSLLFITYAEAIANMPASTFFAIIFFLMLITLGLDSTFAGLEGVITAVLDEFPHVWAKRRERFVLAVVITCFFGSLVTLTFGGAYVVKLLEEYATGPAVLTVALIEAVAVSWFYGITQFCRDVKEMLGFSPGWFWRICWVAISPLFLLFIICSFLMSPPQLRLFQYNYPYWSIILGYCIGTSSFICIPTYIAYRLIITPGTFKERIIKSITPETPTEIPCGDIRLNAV
T1 sequence (Q01959 whole entry): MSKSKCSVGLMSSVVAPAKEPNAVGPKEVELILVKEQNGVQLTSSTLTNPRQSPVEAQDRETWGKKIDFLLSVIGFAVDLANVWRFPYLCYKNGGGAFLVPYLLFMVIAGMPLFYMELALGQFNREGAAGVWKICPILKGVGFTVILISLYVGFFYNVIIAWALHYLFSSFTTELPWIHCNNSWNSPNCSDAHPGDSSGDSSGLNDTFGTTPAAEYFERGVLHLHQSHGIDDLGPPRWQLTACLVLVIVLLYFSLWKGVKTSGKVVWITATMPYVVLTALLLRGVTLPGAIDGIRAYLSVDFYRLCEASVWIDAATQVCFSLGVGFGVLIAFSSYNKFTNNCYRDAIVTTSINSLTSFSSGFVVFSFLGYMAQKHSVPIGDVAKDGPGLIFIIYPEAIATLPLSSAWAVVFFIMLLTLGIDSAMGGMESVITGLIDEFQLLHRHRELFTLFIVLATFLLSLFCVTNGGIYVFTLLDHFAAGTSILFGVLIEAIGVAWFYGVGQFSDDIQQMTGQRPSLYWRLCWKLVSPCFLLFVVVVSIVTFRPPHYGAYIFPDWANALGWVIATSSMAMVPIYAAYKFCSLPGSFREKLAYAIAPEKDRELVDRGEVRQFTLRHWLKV

COc1ccc2ccccc2c1CCC1CCC(CCN)O1 (configuration not stated)
Ki [1]: > 10 µM
Ki [2]: > 10 µM

COc1ccc(F)cc1C[C@H]1CC[C@H](CCN)O1 (relative stereo)
IC50 [3]: 1770 nM

NCCC1CCC(Cc2ccccc2)O1 (configuration not stated)
Ki [1]: > 10 µM
Ki [2]: > 10 µM

COc1ccc(F)cc1[C@@H]1CC[C@H](CCN)O1 (relative stereo)
IC50 [4]: > 10 µM
Ki [1]: > 10 µM

COc1ccc(F)cc1C1CCC(CN)O1 (configuration not stated)
IC50 [4]: > 10 µM

COc1ccc(F)cc1CCC[C@H]1CC[C@H](CN)O1 (relative stereo)
IC50 [4]: 7.62 µM
Ki [5]: 0.8 nM
IC50 [6]: 2.1 nM

COc1ccc(F)cc1CCCC1CCC(CCN)O1 (mixture of isomers)
Activity (Mus musculus [7]): inactive

COc1ccc(F)cc1[C@H]1CC[C@H](CN)O1 (relative stereo)
IC50 [4]: > 10 µM
Ki [1]: > 10 µM

CC(C)(C)c1ccc(C2CCC(CN)O2)cc1 (configuration not stated)
Ki [1]: > 10 µM
Ki [5]: > 10000 nM

NCC1CCC(CCc2cccc3ccccc23)O1 (configuration not stated)
IC50 [4]: > 10 µM
Ki [1]: > 10 µM
Ki [5]: 18 nM
Ki [2]: > 10 µM

COc1ccc(F)cc1C[C@H]1CC[C@H](CN)O1 (relative stereo)
IC50 [4]: 28.9 µM

COc1ccc(C2CCC(CN)O2)cc1 (configuration not stated)
Ki [1]: > 10 µM

CNCCC(Oc1ccc(C(F)(F)F)cc1)c1ccccc1 (configuration not stated)
Activity (Mus musculus [7]): Active
Activity (Mus musculus [8]): inactive

NCC1CCC(c2ccc(Br)cc2)O1 (configuration not stated)
Ki [2]: > 10 µM

COc1ccc(F)cc1CCC[C@@H]1CC[C@H](CN)O1 (relative stereo)
IC50 [4]: 6.29 µM
Ki [1]: 4.58 µM
Ki [5]: 2.8 nM
IC50 [6]: 2.6 nM

COc1ccc(F)cc1CCC1CCC(CCN)O1 (configuration not stated)
Activity (Mus musculus [9]): inactive
half-life [10]: 56 min

CNCCC1CCC(CCc2cc(F)ccc2OC)O1 (configuration not stated)
half-life [10]: 58.5 min
half-life [11]: 129 min

NCC1CCC(CCc2c(F)c(F)c(F)c(F)c2F)O1 (configuration not stated)
Ki [1]: > 10 µM

COc1ccc(F)cc1C[C@@H]1CC[C@H](CN)O1 (relative stereo)
IC50 [4]: 18.7 µM

NCC1CCC(c2ccc3ccccc3c2)O1 (configuration not stated)
Ki [2]: > 10 µM
IC50 [6]: 4 nM

COc1ccc(F)cc1CC[C@H]1CC[C@H](CN)O1
Ki [1]: 14.5 µM

COc1ccc(F)cc1C[C@@H]1CC[C@H](CCN)O1 (relative stereo)
IC50 [3]: 1860 nM

NCCC1CCC(c2ccco2)O1 (configuration not stated)
IC50 [4]: > 10 µM
Ki [1]: > 10 µM
Ki [5]: > 10000 nM
Ki [2]: > 10 µM
IC50 [6]: > 10000 nM
IC50 [3]: > 10000 nM

COc1ccc(F)cc1[C@H]1CC[C@H](CCN)O1
IC50 [4]: > 10 µM
Ki [1]: 32.9 µM

COc1ccc(CCC2CCC(CCN)O2)c2ccccc12 (configuration not stated)
Ki [1]: > 10 µM
Ki [2]: > 10 µM

COc1ccc(F)cc1CCCC[C@H]1CC[C@H](CN)O1 (relative stereo)
IC50 [4]: 16.5 µM
Ki [1]: 3.87 µM
Ki [5]: 4 nM
IC50 [6]: 84 nM

NCC1CCC(CCc2cccnc2)O1 (configuration not stated)
IC50 [4]: > 10 µM
Ki [1]: > 10 µM
IC50 [6]: 2720 nM
IC50 [3]: > 10000 nM
